# In PubChem BioAssay AID228 (DTP/NCI, 2004):
# Values joined by “and” are separate entries in the source; they are usually repeats but may differ in a detail not shown here. Identical values can stand only once. Results filed as inconclusive are left out.
# System: BDF1 mice, Friend leukemia sc, tumor weight T/C
# Assay: NCI In Vivo Anticancer Drug Screen. Data for tumor model Friend Virus Leukemia (Solid) (subcutaneous) in B6D2F1 (BDF1) mice
# Settings: endpoint: mean tumor weight, higher = larger tumour
# Experimental: The antitumor activity of compounds was measured in mice bearing transplantable tumors. Survival or tumor size were measured and the results are expressed as the measurement made in the treated group (T) divided by the measurement made in the vehicle treated control group (C). The tumor model used in this assay is Friend Virus Leukemia (Solid) (subcutaneous) in B6D2F1 (BDF1) mice
# [1] = dose: 25.0 mg/kg/injection, schedule: Q01DX011 (ip), vehicle: carboxymethylcellulose (CMC)
compound,measurement,setting,value
CC(=O)O[C@]1(C(C)=O)CC[C@H]2[C@@H]3C[C@H](C)C4=CC(=O)C=C[C@]4(C)[C@@]3(F)[C@@H](O)C[C@@]21C,T/C,"dose: 25.0 mg/kg/injection, schedule: Q01DX011 (sc), vehicle: steriod suspending solution",35 % of control
same,T/C,"dose: 37.5 mg/kg/injection, schedule: Q01DX011 (sc), vehicle: steriod suspending solution",34 % of control
same,T/C,"dose: 300.0 mg/kg/injection, schedule: Q01DX011 (sc), vehicle: steriod suspending solution",11 % of control
S=P(N1CCOCC1)(N1CC1)N1CC1,T/C,"dose: 12.5 mg/kg/injection, schedule: Q01DX011 (ip), vehicle: carboxymethylcellulose (CMC)",71 % of control
same,T/C,[1],41 % of control
CCC(=O)NC1=C(N2CC2)C(=O)C(NC(=O)CC)=C(N2CC2)C1=O,T/C,"dose: 0.39 mg/kg/injection, schedule: Q01DX011 (ip), vehicle: carboxymethylcellulose (CMC)",61 % of control
same,T/C,"dose: 0.78 mg/kg/injection, schedule: Q01DX011 (ip), vehicle: carboxymethylcellulose (CMC)",48 % of control
same,T/C,"dose: 1.56 mg/kg/injection, schedule: Q01DX011 (ip), vehicle: carboxymethylcellulose (CMC)",24 % of control
same,T/C,"dose: 3.12 mg/kg/injection, schedule: Q01DX011 (ip), vehicle: carboxymethylcellulose (CMC)",7 % of control
CN(C)c1ccc(C(=C(c2ccc(N(C)C)cc2)c2ccc(N(C)C)cc2)c2ccc(N(C)C)cc2)cc1,T/C,"dose: 3.0 mg/kg/injection, schedule: Q01DX011 (ip), vehicle: olive oil, sesame oil, peanut oil",179 % of control
same,T/C,"dose: 6.0 mg/kg/injection, schedule: Q01DX011 (ip), vehicle: olive oil, sesame oil, peanut oil",178 % of control and 237 % of control
same,T/C,"dose: 12.5 mg/kg/injection, schedule: Q01DX011 (ip), vehicle: olive oil, sesame oil, peanut oil",178 % of control
same,T/C,"dose: 50.0 mg/kg/injection, schedule: Q01DX011 (ip), vehicle: olive oil, sesame oil, peanut oil",65 % of control and 63 % of control
same,T/C,"dose: 200.0 mg/kg/injection, schedule: Q01DX011 (ip), vehicle: olive oil, sesame oil, peanut oil",55 % of control
same,T/C,"dose: 300.0 mg/kg/injection, schedule: Q01DX011 (ip), vehicle: olive oil, sesame oil, peanut oil",82 % of control
same,T/C,"dose: 400.0 mg/kg/injection, schedule: Q01DX011 (ip), vehicle: olive oil, sesame oil, peanut oil",80 % of control
O=[As]O,T/C,"dose: 1.6 mg/kg/injection, schedule: Q01DX011 (ip), vehicle: carboxymethylcellulose (CMC)",78 % of control
same,T/C,"dose: 3.25 mg/kg/injection, schedule: Q01DX011 (ip), vehicle: carboxymethylcellulose (CMC)",77 % of control
same,T/C,"dose: 6.5 mg/kg/injection, schedule: Q01DX011 (ip), vehicle: carboxymethylcellulose (CMC)",98 % of control
same,T/C,"dose: 13.0 mg/kg/injection, schedule: Q01DX011 (ip), vehicle: carboxymethylcellulose (CMC)",46 % of control
NC(C=O)C(O)C(O)C(O)CO (centres undefined),T/C,"dose: 125.0 mg/kg/injection, schedule: Q01DX011 (ip), vehicle: carboxymethylcellulose (CMC)",102 % of control
same,T/C,"dose: 250.0 mg/kg/injection, schedule: Q01DX011 (ip), vehicle: carboxymethylcellulose (CMC)",168 % of control
same,T/C,"dose: 1000.0 mg/kg/injection, schedule: Q01DX011 (ip), vehicle: carboxymethylcellulose (CMC)",115 % of control
O=C(NO)c1ccncc1,T/C,"dose: 250.0 mg/kg/injection, schedule: Q01DX011 (ip), vehicle: saline",79 % of control
same,T/C,"dose: 500.0 mg/kg/injection, schedule: Q01DX011 (ip), vehicle: saline",78 % of control and 86 % of control
same,T/C,"dose: 750.0 mg/kg/injection, schedule: Q01DX011 (ip), vehicle: saline",42 % of control and 48 % of control
same,T/C,"dose: 950.0 mg/kg/injection, schedule: Q01DX011 (ip), vehicle: saline",7 % of control
Cn1c(=O)c2[nH]cnc2n(C)c1=O,T/C,"dose: 14.5 mg/kg/injection, schedule: Q01DX011 (ip), vehicle: carboxymethylcellulose (CMC)",97 % of control
same,T/C,"dose: 29.0 mg/kg/injection, schedule: Q01DX011 (ip), vehicle: carboxymethylcellulose (CMC)",93 % of control
same,T/C,"dose: 58.0 mg/kg/injection, schedule: Q01DX011 (ip), vehicle: carboxymethylcellulose (CMC)",82 % of control
same,T/C,"dose: 116.0 mg/kg/injection, schedule: Q01DX011 (ip), vehicle: carboxymethylcellulose (CMC)",66 % of control
Cn1cnc([N+](=O)[O-])c1Sc1nc(N)nc2c1ncn2C1OC(CO)C(O)C1O (centres undefined),T/C,"dose: 0.25 mg/kg/injection, schedule: Q01DX011 (ip), vehicle: carboxymethylcellulose (CMC)",73 % of control
same,T/C,"dose: 0.5 mg/kg/injection, schedule: Q01DX011 (ip), vehicle: carboxymethylcellulose (CMC)",61 % of control
same,T/C,"dose: 1.0 mg/kg/injection, schedule: Q01DX011 (ip), vehicle: carboxymethylcellulose (CMC)",31 % of control and 32 % of control
same,T/C,"dose: 3.0 mg/kg/injection, schedule: Q01DX011 (ip), vehicle: carboxymethylcellulose (CMC)",10 % of control and 24 % of control
same,T/C,"dose: 7.0 mg/kg/injection, schedule: Q01DX011 (ip), vehicle: carboxymethylcellulose (CMC)",5 % of control
Cc1ccc(N=NN(C)C)cc1,T/C,[1],110 % of control
same,T/C,"dose: 50.0 mg/kg/injection, schedule: Q01DX011 (ip), vehicle: carboxymethylcellulose (CMC)",90 % of control
same,T/C,"dose: 100.0 mg/kg/injection, schedule: Q01DX011 (ip), vehicle: carboxymethylcellulose (CMC)",28 % of control
